ChEMBL document CHEMBL1201862, “PubChem BioAssay data set” (2004)
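Step 1: Grow cells in 96-well plates. Step 2: Expose to compound for 48 hours at 5 concentrations. Step 3: Interpolate endpoints linearly; if unreached, use highest concentration. The concentration for 50% growth inhibition is given as GI50.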 Active and inactive are the calls of the source. Cut-off read from the data, not from the text of the source: active = GI50 up to about 1.1 µM and inactive = higher.

Assays:
Assay in all cases: NCI tumour cell line growth inhibition, 48 h
[1] = test system: SK-MEL-28
[2] = test system: NCI-H522
[3] = test system: A549
[4] = test system: UACC-62
[5] = test system: MCF7
[6] = test system: RXF 393
[7] = test system: SF-268
[8] = test system: UACC-257
[9] = test system: OVCAR-8
[10] = test system: SR
[11] = test system: COLO 205
[12] = test system: NCI-H226
[13] = test system: UO-31
[14] = test system: M14
[15] = test system: NCI-H23
[16] = test system: NCI-H460
[17] = test system: CCRF-CEM
[18] = test system: HCT-116
[19] = test system: OVCAR-4
[20] = test system: MDA-MB-231

SMILES | GI50 [1] | GI50 [2] | GI50 [3] | GI50 [4] | GI50 [5] | GI50 [6] | GI50 [7] | GI50 [8] | GI50 [9] | GI50 [10] | GI50 [11] | GI50 [12] | GI50 [13] | GI50 [14] | GI50 [15] | GI50 [16] | GI50 [17] | GI50 [18] | GI50 [19] | GI50 [20]
CC(C)(C)OC(=O)NCCNC(=O)OCc1ccccc1 | > 100 µM (inactive) | > 100 µM (inactive) | > 100 µM (inactive) | > 100 µM (inactive) | > 100 µM (inactive) | > 100 µM (inactive) | > 100 µM (inactive) | > 100 µM (inactive) | > 100 µM (inactive) | > 100 µM (inactive) | > 100 µM (inactive) | > 100 µM (inactive) | > 100 µM (inactive) | > 100 µM (inactive) | > 100 µM (inactive) | > 100 µM (inactive) |  |  |  | 
Cc1ccc(S(=O)(=O)N(CC(O)c2ccccc2)c2ccccc2F)cc1 (stereo unspecified) | 18 µM (inactive) | 17.3 µM (inactive) | 19.5 µM (inactive) | 12.2 µM (inactive) | 13 µM (inactive) |  | 15.9 µM (inactive) | 4.65 µM (inactive) | 19.3 µM (inactive) |  | 15.4 µM (inactive) | 20.7 µM (inactive) | 16.2 µM (inactive) | 16.4 µM (inactive) | 16.6 µM (inactive) | 17.4 µM (inactive) | 25.3 µM (inactive) | 12.7 µM (inactive) | 13.5 µM (inactive) | 18.2 µM (inactive)
CCOC(=O)c1ccc(Nc2nc3ccccc3nc2C(=O)OCC)cc1 | > 100 µM (inactive) | > 100 µM (inactive) | > 100 µM (inactive) | > 100 µM (inactive) | > 100 µM (inactive) |  | > 100 µM (inactive) |  | > 100 µM (inactive) | > 100 µM (inactive) | > 100 µM (inactive) |  | > 100 µM (inactive) | > 100 µM (inactive) | > 100 µM (inactive) | > 100 µM (inactive) | > 100 µM (inactive) | > 100 µM (inactive) | > 100 µM (inactive) | > 100 µM (inactive)
Cc1n2nc(N)sc2n[n+]1Cc1ccccc1 | > 100 µM (inactive) | > 100 µM (inactive) | 70.6 µM (inactive) | 47.4 µM (inactive) | > 100 µM (inactive) | > 100 µM (inactive) | 48.8 µM (inactive) | > 100 µM (inactive) | > 100 µM (inactive) |  | 21.4 µM (inactive) | > 100 µM (inactive) | > 100 µM (inactive) | > 100 µM (inactive) | > 100 µM (inactive) | > 10 µM (inactive) | > 100 µM (inactive) | > 100 µM (inactive) | > 100 µM (inactive) | 
COc1ccc(P2(=S)OC(C)(C)C(C)(C)O2)cc1 | > 100 µM (inactive) | > 100 µM (inactive) | > 100 µM (inactive) | > 100 µM (inactive) | > 100 µM (inactive) |  |  | > 100 µM (inactive) | > 100 µM (inactive) | > 100 µM (inactive) |  | > 100 µM (inactive) | 17.5 µM (inactive) | > 100 µM (inactive) | > 100 µM (inactive) | > 100 µM (inactive) | > 100 µM (inactive) | > 100 µM (inactive) | > 100 µM (inactive) | > 100 µM (inactive)
CC(=O)OCCn1cnc2nc(Nc3ccccc3)nc(Cl)c21 | > 100 µM (inactive) | 84.9 µM (inactive) | > 100 µM (inactive) | 44.1 µM (inactive) | 46.8 µM (inactive) |  | > 100 µM (inactive) | 76.9 µM (inactive) | > 100 µM (inactive) | 54.8 µM (inactive) | 47.5 µM (inactive) | > 100 µM (inactive) |  |  | > 100 µM (inactive) | 51.9 µM (inactive) | 69.2 µM (inactive) | 71.1 µM (inactive) | 43.3 µM (inactive) | 38.1 µM (inactive)
CCCOc1ccc(/C=C/c2cc(OC)c(OC)c(OC)c2)cc1 | 8.75 µM (inactive) | 0.175 µM (active) | 0.452 µM (active) | 0.215 µM (active) |  | 0.254 µM (active) | 0.618 µM (active) | 0.348 µM (active) | 0.525 µM (active) | 0.548 µM (active) | 0.298 µM (active) | 0.373 µM (active) | 0.482 µM (active) | 0.252 µM (active) | 0.23 µM (active) | 0.439 µM (active) | 0.324 µM (active) | 0.552 µM (active) | 0.971 µM (active) | 
O=C(c1ccco1)N(C(=S)N1CCN(c2ccccc2)CC1)c1ccccc1 | > 100 µM (inactive) | > 100 µM (inactive) | > 100 µM (inactive) | > 100 µM (inactive) |  | > 100 µM (inactive) | > 100 µM (inactive) | > 100 µM (inactive) | > 100 µM (inactive) | 72.4 µM (inactive) | > 100 µM (inactive) | 25.6 µM (inactive) | 66.8 µM (inactive) | > 100 µM (inactive) | > 100 µM (inactive) | > 100 µM (inactive) | > 100 µM (inactive) | > 100 µM (inactive) | > 100 µM (inactive) | 
c1ccc2c(c1)nnn2CNc1ccc(N2CCCCC2)cc1 | > 100 µM (inactive) | > 100 µM (inactive) | > 100 µM (inactive) | > 100 µM (inactive) |  | > 100 µM (inactive) | > 100 µM (inactive) | > 100 µM (inactive) | > 100 µM (inactive) | 62.7 µM (inactive) | > 100 µM (inactive) | > 100 µM (inactive) | > 100 µM (inactive) | > 100 µM (inactive) | > 100 µM (inactive) | > 100 µM (inactive) | 77.1 µM (inactive) | > 100 µM (inactive) | > 100 µM (inactive) | 
CC1C(c2cc(C(C)(C)C)c(O)c(C(C)(C)C)c2)c2cc3c(cc2OC1N1CCOCC1)OCO3 (stereo unspecified) | 15.6 µM (inactive) | 21.2 µM (inactive) | 16.6 µM (inactive) | 26.4 µM (inactive) | 21.2 µM (inactive) |  | 17.4 µM (inactive) | 34.6 µM (inactive) | 19.1 µM (inactive) | 64.7 µM (inactive) | 71 µM (inactive) |  | 12.4 µM (inactive) | 17.5 µM (inactive) | 28.1 µM (inactive) | 21.6 µM (inactive) | > 100 µM (inactive) | 13.7 µM (inactive) |  | 
CS/C(=N\C#N)S/C=C/C(=O)c1ccc(Cl)cc1 | 20.6 µM (inactive) | 18.3 µM (inactive) | > 100 µM (inactive) | 22.9 µM (inactive) | 26.4 µM (inactive) | 19.6 µM (inactive) | 22.5 µM (inactive) | 20.9 µM (inactive) | 20.2 µM (inactive) | 3.13 µM (inactive) | 25.4 µM (inactive) |  | 18.3 µM (inactive) | 22.3 µM (inactive) | 24.9 µM (inactive) | > 100 µM (inactive) | 78.5 µM (inactive) | 18.5 µM (inactive) | 64.7 µM (inactive) | 
COc1cc(S(=O)(=O)Nc2ccc(-c3csc(N4C(=O)C(Cl)C4c4ccccc4O)n3)cc2)ccc1Cl (stereo unspecified) | 38.1 µM (inactive) | 1.51 µM (inactive) | > 100 µM (inactive) | 17 µM (inactive) | 21 µM (inactive) | 19.9 µM (inactive) | 25.8 µM (inactive) | 29.1 µM (inactive) | 53.6 µM (inactive) | 4.82 µM (inactive) | 23.9 µM (inactive) | 37.8 µM (inactive) | 31.9 µM (inactive) | 50.9 µM (inactive) | 23.6 µM (inactive) | 47.5 µM (inactive) | 2.73 µM (inactive) | 30.3 µM (inactive) | 26.4 µM (inactive) | 
COC(=O)C(C(=O)C(=O)Nc1ccc(C)cc1C)c1nc2ccc([N+](=O)[O-])cc2nc1O (stereo unspecified) | > 100 µM (inactive) | 60.3 µM (inactive) | > 100 µM (inactive) | > 100 µM (inactive) |  | > 100 µM (inactive) | > 100 µM (inactive) | > 100 µM (inactive) | > 100 µM (inactive) | > 100 µM (inactive) | 95.7 µM (inactive) | > 100 µM (inactive) | 76.2 µM (inactive) | > 100 µM (inactive) | > 100 µM (inactive) | > 100 µM (inactive) | 71.4 µM (inactive) | > 100 µM (inactive) | > 100 µM (inactive) | 
COc1cc([C@@H]2c3cc4c(cc3[C@@H](Nc3ccc(NC(=O)c5cc(NC(=O)c6cc([N+](=O)[O-])cn6C)cn5C)cc3)[C@H]3COC(=O)[C@H]23)OCO4)cc(OC)c1O |  | 0.261 µM (active) | 0.239 µM (active) | 0.453 µM (active) | 0.047 µM (active) |  |  | 0.687 µM (active) | 0.76 µM (active) | 0.0159 µM (active) | 2.31 µM (inactive) | 0.334 µM (active) | 5.22 µM (inactive) | 1.78 µM (inactive) | 0.465 µM (active) | 0.0303 µM (active) | 0.154 µM (active) | 0.149 µM (active) | > 43.7 µM (inactive) | > 38.8 µM (inactive)
NCCCC(N/C=C1/N=C(c2ccccc2)OC1=O)C(=O)O (stereo unspecified) | > 100 µM (inactive) | 40.8 µM (inactive) | > 100 µM (inactive) | > 100 µM (inactive) |  | > 100 µM (inactive) | > 100 µM (inactive) | > 100 µM (inactive) | > 100 µM (inactive) | 87.3 µM (inactive) | > 100 µM (inactive) | > 100 µM (inactive) | > 100 µM (inactive) | > 100 µM (inactive) | > 100 µM (inactive) | > 100 µM (inactive) | 37.8 µM (inactive) | 40.3 µM (inactive) | > 100 µM (inactive) | 
Cc1ccc(C(=O)C(C)N)cc1 (stereo unspecified) | > 100 µM (inactive) | > 100 µM (inactive) | > 100 µM (inactive) | > 100 µM (inactive) |  | > 100 µM (inactive) | > 100 µM (inactive) | > 100 µM (inactive) | > 100 µM (inactive) | > 100 µM (inactive) | > 100 µM (inactive) | > 100 µM (inactive) | > 100 µM (inactive) | > 100 µM (inactive) | > 100 µM (inactive) | > 100 µM (inactive) | > 100 µM (inactive) | > 100 µM (inactive) | > 100 µM (inactive) | 
